Each block holds one molecule with its values, some of them ahead of it.
Legend:
Format in all cases: functional, cell-based
Conditions in all cases: oocyte
[1] = target: T1, Solute carrier organic anion transporter family member 1A1 (Rattus norvegicus, UniProt P46720); assay: TP_TRANSPORTER: inhibition of Gadoxetate uptake (Gadoxetate: 100 uM, BSP: 10 uM) in Xenopus laevis oocytes
T1 sequence (P46720 whole entry): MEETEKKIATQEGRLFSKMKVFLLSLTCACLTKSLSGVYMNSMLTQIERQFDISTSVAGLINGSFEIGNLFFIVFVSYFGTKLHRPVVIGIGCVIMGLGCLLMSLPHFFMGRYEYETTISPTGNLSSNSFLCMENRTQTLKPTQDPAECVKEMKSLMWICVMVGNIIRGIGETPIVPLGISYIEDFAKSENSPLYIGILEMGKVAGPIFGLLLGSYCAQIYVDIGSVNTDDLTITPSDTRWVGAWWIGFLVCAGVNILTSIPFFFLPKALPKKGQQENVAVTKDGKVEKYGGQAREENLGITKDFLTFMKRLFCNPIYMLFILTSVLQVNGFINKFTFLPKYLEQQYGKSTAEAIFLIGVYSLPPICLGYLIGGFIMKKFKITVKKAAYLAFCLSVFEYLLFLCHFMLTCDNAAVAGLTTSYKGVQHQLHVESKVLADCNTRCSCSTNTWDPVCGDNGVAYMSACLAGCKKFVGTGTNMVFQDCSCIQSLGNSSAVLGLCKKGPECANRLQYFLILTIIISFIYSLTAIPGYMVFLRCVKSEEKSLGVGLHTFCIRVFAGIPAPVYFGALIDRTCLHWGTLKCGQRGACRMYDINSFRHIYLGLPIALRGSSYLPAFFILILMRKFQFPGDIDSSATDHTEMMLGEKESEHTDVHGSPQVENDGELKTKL

[2] = target: T1, Solute carrier organic anion transporter family member 1A1; assay: TP_TRANSPORTER: inhibition of Gadoxetate uptake (Gadoxetate: 100 uM, Rifampicin: 100 uM) in Xenopus laevis oocytes
[3] = target: T1, Solute carrier organic anion transporter family member 1A1; assay: TP_TRANSPORTER: uptake in Xenopus laevis oocytes
[4] = target: T1, Solute carrier organic anion transporter family member 1A1; assay: TP_TRANSPORTER: inhibition of Gadoxetate uptake (Gadoxetate: 100 uM, Rifamycin SV: 100 uM) in Xenopus laevis oocytes

Molecule: O=C1OC(c2ccc(O)c(S(=O)(=O)[O-])c2)(c2ccc(O)c(S(=O)(=O)[O-])c2)c2c(Br)c(Br)c(Br)c(Br)c21.[Na+].[Na+] [SULFOBROMOPHTHALEIN SODIUM]
Activity [1]: inhibitor [(at a rough estimate) 55 % of control]

Molecule: CO[C@H]1/C=C/O[C@@]2(C)Oc3c(C)c(O)c4c(O)c(c(/C=N/N5CCN(C)CC5)c(O)c4c3C2=O)NC(=O)/C(C)=C\C=C\[C@H](C)[C@H](O)[C@@H](C)[C@@H](O)[C@@H](C)[C@H](OC(C)=O)[C@@H]1C [RIFAMPIN]
Activity [2]: inhibitor [(at a rough estimate) 50 % of control]

Km [3]: 3.3 mM
Molecule: GADOXETATE

Molecule: CO[C@H]1/C=C/O[C@@]2(C)Oc3c(C)c(O)c4c(O)c(cc(O)c4c3C2=O)NC(=O)/C(C)=C\C=C\[C@H](C)[C@H](O)[C@@H](C)[C@@H](O)[C@@H](C)[C@H](OC(C)=O)[C@@H]1C [RIFAMYCIN]
Activity [4]: inhibitor [(at a rough estimate) <5 % of control]

— ChEMBL document CHEMBL2073792, “Hepatic uptake of the magnetic resonance imaging contrast agent gadoxetate by the organic anion transporting polypeptide Oatp1” (J Pharmacol Exp Ther, 1999)
